Among the data in US10233173B2, “Substituted 1,2,3-triazoles as NR2B-selective NMDA modulators” (JANSSEN PHARMACEUTICA NV, priority 2016, dated 2019) are IC50 values, retold here.

Sequence of human GluN1/GluN2B NMDA receptors (Q13224 27-1484, other chains not shown): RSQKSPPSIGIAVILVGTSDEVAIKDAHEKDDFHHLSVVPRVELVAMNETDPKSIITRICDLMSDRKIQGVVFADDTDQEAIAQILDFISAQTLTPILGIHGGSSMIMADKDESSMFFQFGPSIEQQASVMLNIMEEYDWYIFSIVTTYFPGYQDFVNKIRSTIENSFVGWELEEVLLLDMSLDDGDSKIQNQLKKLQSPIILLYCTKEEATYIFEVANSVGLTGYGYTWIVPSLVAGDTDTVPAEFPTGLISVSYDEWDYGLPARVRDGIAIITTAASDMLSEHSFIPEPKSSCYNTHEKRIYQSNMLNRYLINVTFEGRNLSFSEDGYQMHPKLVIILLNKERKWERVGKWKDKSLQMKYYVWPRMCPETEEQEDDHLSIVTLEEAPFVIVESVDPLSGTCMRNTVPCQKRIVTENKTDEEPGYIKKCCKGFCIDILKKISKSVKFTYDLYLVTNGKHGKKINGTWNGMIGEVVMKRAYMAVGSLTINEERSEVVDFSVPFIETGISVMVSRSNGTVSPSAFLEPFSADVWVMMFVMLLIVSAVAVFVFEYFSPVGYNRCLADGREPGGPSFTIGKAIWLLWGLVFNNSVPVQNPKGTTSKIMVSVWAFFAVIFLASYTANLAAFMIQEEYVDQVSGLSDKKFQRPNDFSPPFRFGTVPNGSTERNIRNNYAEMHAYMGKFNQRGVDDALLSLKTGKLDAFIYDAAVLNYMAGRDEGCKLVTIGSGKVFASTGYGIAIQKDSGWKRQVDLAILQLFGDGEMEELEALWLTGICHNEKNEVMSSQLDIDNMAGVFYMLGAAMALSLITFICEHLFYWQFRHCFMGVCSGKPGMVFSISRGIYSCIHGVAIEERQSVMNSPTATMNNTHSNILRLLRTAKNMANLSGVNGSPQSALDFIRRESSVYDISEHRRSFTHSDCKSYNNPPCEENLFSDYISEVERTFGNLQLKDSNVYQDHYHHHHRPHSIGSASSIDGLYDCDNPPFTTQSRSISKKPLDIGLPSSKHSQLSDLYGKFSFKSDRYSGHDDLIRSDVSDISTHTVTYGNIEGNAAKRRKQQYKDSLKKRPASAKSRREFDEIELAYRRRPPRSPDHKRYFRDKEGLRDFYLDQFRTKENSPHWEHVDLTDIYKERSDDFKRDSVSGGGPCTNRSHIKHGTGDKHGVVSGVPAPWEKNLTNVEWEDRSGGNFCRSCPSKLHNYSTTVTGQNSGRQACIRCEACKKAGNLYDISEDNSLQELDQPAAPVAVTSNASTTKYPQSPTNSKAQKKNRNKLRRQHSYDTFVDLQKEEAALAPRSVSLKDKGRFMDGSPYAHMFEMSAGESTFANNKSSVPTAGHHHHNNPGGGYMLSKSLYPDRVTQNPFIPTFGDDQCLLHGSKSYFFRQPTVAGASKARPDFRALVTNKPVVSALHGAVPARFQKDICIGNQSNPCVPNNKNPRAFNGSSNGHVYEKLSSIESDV

One test has as its target human GluN1/GluN2B NMDA receptors (Homo sapiens, UniProt Q05586+Q13224). In words: Cell-based calcium flux (FLIPR) assay on cloned human NR1/NR2B ion channels expressed in mammalian cells. The following applies: standard assay; glutamate at ~EC80; FLIPR calcium flux. The method, boiled down:
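Calcium influx followed by FLIPR fluorescence after 5 min compound exposure and a further 5 min co-agonist challenge: 10 μM glycine with glutamate at ~EC80 (standard) or EC40 (HTS).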
Background: Calcium flux is commonly read through the fluorescence of an indicator in the cells.
Take `CCOc1cnc(OCc2cn(-c3ccc(F)c(C(F)(F)F)c3)nn2)nc1` [Example 443, 5-Ethoxy-2-[[1-[4-fluoro-3-(trifluoromethyl)phenyl]triazol-4-yl]methoxy]pyrimidine]: the IC50 was 0.004 µM. On the same count and under the same terms, as for `CC(C)(O)c1cnc(OCc2cn(-c3ccc(F)c(C(F)F)c3)nn2)nc1` [Example 401, 2-[2-[[1-[3-(Difluoromethyl)-4-fluoro-phenyl]triazol-4-yl]methoxy]pyrimidin-5-yl]propan-2-ol], the figure is 0.017 µM; as for `Cc1c(F)ccc(-n2cc(COc3ncc(C(F)F)cn3)nn2)c1F` [Example 641, 5-(Difluoromethyl)-2-[[1-(2,4-difluoro-3-methyl-phenyl)triazol-4-yl]methoxy]pyrimidine], 0.111 µM; as for `COc1ccnc(OCc2cn(-c3ccc(Cl)c(C(C)(F)F)c3)nn2)n1` [Example 541, 2-[[1-[4-Chloro-3-(1,1-difluoroethyl)phenyl]triazol-4-yl]methoxy]-4-methoxy-pyrimidine], 0.012 µM. Same read-out and setting: as for `CCNc1cnc(OCc2cn(-c3ccc(F)c(C(F)(F)F)c3)nn2)nc1` [Example 459, 2-((1-(3-(Trifluoromethyl)-4-fluorophenyl)-1H-1,2,3-triazol-4-yl)methoxy)-N-ethylpyrimidin-5-amine], the figure is 0.126 µM. With `Cc1ccc(-n2cc(COc3ncc(Br)cn3)nn2)cc1OC(F)F` [Example 525, 5-Bromo-2-[[1-[3-(difluoromethoxy)-4-methyl-phenyl]triazol-4-yl]methoxy]pyrimidine], the IC50 amounted to 0.04 µM. On the same count and under the same terms, the result for `Cc1ccc(OCc2cn(-c3ccc(F)c(C(F)(F)F)c3)nn2)nc1` [Example 431, 2-[[1-[4-Fluoro-3-(trifluoromethyl)phenyl]triazol-4-yl]methoxy]-5-methyl-pyridine] reads 0.101 µM. On the same count and under the same terms, the result for `Cc1ccc(F)c(-n2cc(COc3ncc(Cl)c(C)n3)nn2)c1` [Example 485, 5-Chloro-2-[[1-(2-fluoro-5-methyl-phenyl)triazol-4-yl]methoxy]-4-methyl-pyrimidine] reads 1.01 µM; that for `Fc1ccc(-n2cc(COc3nccc(C(F)F)n3)nn2)cc1C(F)(F)F` [Example 440, 4-(Difluoromethyl)-2-[[1-[4-fluoro-3-(trifluoromethyl)phenyl]triazol-4-yl]methoxy]pyrimidine], 0.098 µM; that for `CNc1ccnc(OCc2cn(-c3ccc(F)c(OC(F)F)c3)nn2)n1` [Example 503, 2-[[1-[3-(Difluoromethoxy)-4-fluoro-phenyl]triazol-4-yl]methoxy]-N-methyl-pyrimidin-4-amine], 0.008 µM.

As to `CC(F)(F)c1cc(-n2cc(COc3ncc(C4CC4)cn3)nn2)ccc1F` [Example 587, 5-Cyclopropyl-2-[[1-[3-(1,1-difluoroethyl)-4-fluoro-phenyl]triazol-4-yl]methoxy]pyrimidine], the IC50 came to 0.041 µM. On the same count and under the same terms, the result for `Nc1ccnc(OCc2cn(-c3ccc(F)c(C(F)F)c3)nn2)n1` [Example 412, 2-[[1-[3-(Difluoromethyl)-4-fluoro-phenyl]triazol-4-yl]methoxy]pyrimidin-4-amine] reads 0.124 µM; that for `Cc1cc(-n2cc(COc3ncc(F)c(C)n3)nn2)ccc1F` [Example 481, 5-Fluoro-2-[[1-(4-fluoro-3-methyl-phenyl)triazol-4-yl]methoxy]-4-methyl-pyrimidine], 0.002 µM; that for `Cc1cnc(OCc2nnn(-c3cccc(C(F)F)c3)c2C)nc1C` [Example 528, 2-[[1-[3-(Difluoromethyl)phenyl]-5-methyl-triazol-4-yl]methoxy]-4,5-dimethyl-pyrimidine], 0.752 µM.

The same test, now with this note: standard assay; human GluN1/GluN2B, calcium flux (FLIPR), glutamate ~EC80.
On to `Nc1ccnc(OCc2cn(-c3ccc(Cl)c(OC(F)F)c3)nn2)n1` [Example 382, 2-((1-(4-chloro-3-(difluoromethoxy)phenyl)-1H-1,2,3-triazol-4-yl)methoxy)pyrimidin-4-amine], for which the IC50 was determined as 0.021 µM. Turning to `Cn1ccnc1NCc1cn(-c2ccc(F)c(C(F)F)c2)nn1` [Example 220, N-((1-(3-(Difluoromethyl)-4-fluorophenyl)-1H-1,2,3-triazol-4-yl)methyl)-1-methyl-1H-imidazol-2-amine], the IC50 was 3.65 µM.

For the molecule `CC(F)(F)c1cccc(-n2cc(COc3ncc(CO)cn3)nn2)c1` [Example 298, [2-[[1-[3-(1,1-Difluoroethyl)phenyl]triazol-4-yl]methoxy]pyrimidin-5-yl]methanol], the IC50 was determined as 0.034 µM. Same read-out and setting: the result for `Cc1cccc(-n2cc(COc3ncc(F)c(C)n3)nn2)c1` [Example 252, 5-Fluoro-4-methyl-2-[[1-(m-tolyl)triazol-4-yl]methoxy]pyrimidine] reads 0.065 µM; that for `FC(F)c1cccc(-n2cc(COc3nccc(C(F)F)n3)nn2)c1` [Example 274, 4-(Difluoromethyl)-2-[[1-[3-(difluoromethyl)phenyl]triazol-4-yl]methoxy]pyrimidine], 0.813 µM; that for `CCc1cnc(OCc2cn(-c3ccc(F)c(Br)c3)nn2)nc1` [Example 40, 2-[[1-(3-Bromo-4-fluoro-phenyl)triazol-4-yl]methoxy]-5-ethyl-pyrimidine], 0.001 µM. The same measure, in the same setting: the result for `Cc1cnc(OCc2nnn(-c3ccc(F)c(C(C)(F)F)c3)c2C)nc1` [Example 173, 2-[[1-[3-(1,1-Difluoroethyl)-4-fluoro-phenyl]-5-methyl-triazol-4-yl]methoxy]-5-methyl-pyrimidine] reads 0.465 µM; that for `CCc1cnc(OCc2cn(-c3ccc(F)c(C(C)(F)F)c3)nn2)nc1` [Example 67, 2-[[1-[3-(1,1-Difluoroethyl)-4-fluoro-phenyl]triazol-4-yl]methoxy]-5-ethyl-pyrimidine], 0.015 µM. Still for that read-out and setting: as for `Cc1ccc(OCc2cn(-c3ccc(Cl)c(OC(F)F)c3)nn2)cn1` [Example 104, 5-[[1-[4-Chloro-3-(difluoromethoxy)phenyl]triazol-4-yl]methoxy]-2-methyl-pyridine], the figure is 0.729 µM; as for `FC(F)Oc1cccc(-n2cc(COc3ncc(Cl)cn3)nn2)c1` [Example 326, 5-Chloro-2-[[1-[3-(difluoromethoxy)phenyl]triazol-4-yl]methoxy]pyrimidine], 0.069 µM. Take `COc1cnc(OCc2cn(-c3cc(C)cc(C)c3)nn2)nc1` [Example 362, 2-[[1-(3,5-Dimethylphenyl)triazol-4-yl]methoxy]-5-methoxy-pyrimidine]: the IC50 was determined as 0.032 µM. The same measure, in the same setting: as for `FC(F)c1cnc(OCc2cn(-c3cccc(C(F)(F)F)c3)nn2)nc1` [Example 289, 5-(Difluoromethyl)-2-[[1-[3-(trifluoromethyl)phenyl]triazol-4-yl]methoxy]pyrimidine], the figure is 0.037 µM. The same measure, in the same setting: the result for `CC(=O)c1cnc(OCc2cn(-c3cccc(OC(F)(F)F)c3)nn2)nc1` [Example 344, 1-[2-[[1-[3-(Trifluoromethoxy)phenyl]triazol-4-yl]methoxy]pyrimidin-5-yl]ethanone] reads 0.062 µM; that for `CC(C)(O)c1cnc(OCc2cn(-c3ccc4c(c3)CCC4)nn2)nc1` [Example 369, 2-[2-[(1-Indan-5-yltriazol-4-yl)methoxy]pyrimidin-5-yl]propan-2-ol], 0.175 µM; that for `Cc1cnc(OC(C)c2cn(-c3ccc(Cl)c(OC(F)F)c3)nn2)nc1` (single isomer, unassigned) [Example 57, (R*)-2-[1-[1-[4-Chloro-3-(difluoromethoxy)phenyl]triazol-4-yl]ethoxy]-5-methyl-pyrimidine], 0.338 µM. Same read-out and setting: as for `Cc1cnc(OCc2cn(-c3cccc(OC(F)(F)F)c3)nn2)nc1N` [Example 343, 5-Methyl-2-[[1-[3-(trifluoromethoxy)phenyl]triazol-4-yl]methoxy]pyrimidin-4-amine], the figure is 0.04 µM; as for `CN(C)c1ccnc(OCc2cn(-c3cccc(C(C)(F)F)c3)nn2)n1` [Example 318, 2-[[1-[3-(1,1-Difluoroethyl)phenyl]triazol-4-yl]methoxy]-N,N-dimethyl-pyrimidin-4-amine], 0.026 µM; as for `Cc1nc(OCc2cn(-c3ccc4c(c3)CCC4)nn2)ncc1Cl` [Example 371, 5-Chloro-2-[(1-indan-5-yltriazol-4-yl)methoxy]-4-methyl-pyrimidine], 0.039 µM.

With `CC(F)(F)c1cccc(-n2cc(COc3ncc(C(C)(O)C(F)(F)F)cn3)nn2)c1` (racemic) [Example 305, (R/S)-2-[2-[[1-[3-(1,1-Difluoroethyl)phenyl]triazol-4-yl]methoxy]pyrimidin-5-yl]-1,1,1-trifluoro-propan-2-ol], the IC50 is 0.496 µM. On the same count and under the same terms, as for `Cc1ccc(-n2cc(COc3ncc(Cl)cn3)nn2)cc1` [Example 259, 5-Chloro-2-[[1-(p-tolyl)triazol-4-yl]methoxy]pyrimidine], the figure is 0.711 µM. The same measure, in the same setting: as for `Nc1nc(OCc2cn(-c3ccc(Cl)c(OC(F)F)c3)nn2)ncc1F` [Example 390, 2-((1-(4-Chloro-3-(difluoromethoxy)phenyl)-1H-1,2,3-triazol-4-yl)methoxy)-5-fluoropyrimidin-4-amine], the figure is 0.006 µM. Still for that read-out and setting: the result for `Fc1cnc(OCc2cn(-c3cccc(OC(F)F)c3)nn2)nc1` [Example 324, 2-[[1-[3-(Difluoromethoxy)phenyl]triazol-4-yl]methoxy]-5-fluoro-pyrimidine] reads 0.494 µM; that for `Cc1cnc(OCc2cn(-c3cccc(C)c3)nn2)nc1` [Example 243, 5-Methyl-2-[[1-(m-tolyl)triazol-4-yl]methoxy]pyrimidine], 0.014 µM. Take `CCc1cnc(OCc2cn(-c3ccc(F)c(C(F)(F)F)c3)nn2)nc1` [Example 72, 5-Ethyl-2-[[1-[4-fluoro-3-(trifluoromethyl)phenyl]triazol-4-yl]methoxy]pyrimidine]: the IC50 came to 0.01 µM. The same measure, in the same setting: the result for `CNC(=O)c1ccnc(OCc2cn(-c3ccc(F)c(C(F)F)c3)nn2)n1` [Example 162, 2-[[1-[3-(Difluoromethyl)-4-fluoro-phenyl]triazol-4-yl]methoxy]-N-methyl-pyrimidine-4-carboxamide] reads greater than 2.99 µM; that for `Cc1cnc(NCc2cn(-c3ccc(F)c(C)c3)nn2)nc1` [Example 198, N-[[1-(4-Fluoro-3-methyl-phenyl)triazol-4-yl]methyl]-5-methyl-pyrimidin-2-amine], 0.147 µM.

What is called IC50 is the concentration needed to halve the response being measured.
